Results taken from patent publication US5763404A, “Methods for using LHRH antagonists with low histamine release” (priority 1995, dated 1998).
Starred links: 1 amine or outer side, 2 acyl side, 3 side chain; linkers in the order of their positions; H or OH if unused. Non-standard residues stand in square brackets, D forms with d. Residues, ends and D or L forms follow the SMILES beside them. *: point of attachment. dPhe(3,4-Cl2) = N[C@H](Cc1ccc(Cl)c(Cl)c1)C(=O)O; X9 = CN=C(NCCC[C@H](N[*:1])C(=O)[*:2])N(C)C; X5 = O=C([C@H](CCCCNC1CCCC1)N[*:1])[*:2]; dPhe(4-Cl) = N[C@H](Cc1ccc(Cl)cc1)C(=O)O; Pyrimidin2yl(4,6-Me2) = Cc1cc(C)nc(*)n1; d2Nal = N[C@H](Cc1ccc2ccccc2c1)C(=O)O; Nicotinoyl(6-Me) = Cc1ccc(C(=O)*)cn1; Lys(iPr) = CC(C)NCCCC[C@H](N)C(=O)O; Orn(iPr) = CC(C)NCCC[C@H](N)C(=O)O; 3Pal = N[C@@H](Cc1cccnc1)C(=O)O; d3Pal = N[C@H](Cc1cccnc1)C(=O)O; Isonicotinoyl = O=C(c1ccncc1)*; Nicotinoyl = O=C(c1cccnc1)*; Picolinoyl = O=C(c1ccccn1)*; dOrn = NCCC[C@@H](N)C(=O)O; Orn = NCCC[C@H](N)C(=O)O; Bz = O=C(c1ccccc1)*

What follows are molecules tested on anaesthesized rats (assay: wheal test, intradermal injection). Conditions: Table I; 10 ug peptide intradermally.
Type: in vivo, rat
Description: The antiovulatory activity, AOA, in rats was determined as described by Humphries et al. (12). Antiovulation assays were performed by counting, on estrus, the number of ova shed by 4-day cycling rats after a single sc injection of the LH-RH analogue in corn oil was administered between 12 and 12:30 p.m. on […]. The control rats received 0.3 mL of the vehicle. The wheal test was performed by intradermally injecting 10 ug of peptide in 100 ul of saline into anaesthesized rats, measuring the ideally circular wheal response and calculating the area. The in vitro histamine release test was done as described by Karten et al. (4). A suspension of rat mast cells was added to increasing concentrations of peptide and the mixture was incubated for a few minutes followed by centrifugation to collect the histamine in the supernatant. A PIPES (piperazine-N,N'-bis[2-ethanesulfonic acid]) medium buffered at pH 7.4 containing NaCl 119 mM, KCl 5 mM, PIPES 25 mM, NaOH 40 mM, glucose 5.6 mM, CaCl2 1 mM, and 0.1% bovine serum albumin was used. This was designated as PIPES AC. Peptides were dissolved in double distilled H2 O at a concentration of 2 mg/ml and stored at -20° C. They were thawed just prior to testing, diluted in PIPES AC and prewarmed for five minutes at 37° C. Peptides studied were stable to heating at 56° C. for two hours, and to freezing and thawing.

| Compound | Wheal [mm^2 /10] |
| --- | --- |
| CN=C(NCCC[C@H](NC(=O)[C@H](CC(C)C)NC(=O)[C@@H](CCCCNC(=O)c1cccnc1)NC(=O)[C@H](CCCCNC(=O)c1cccnc1)NC(=O)[C@H](CO)NC(=O)[C@@H](Cc1cccnc1)NC(=O)[C@@H](Cc1ccc(Cl)cc1)NC(=O)[C@@H](Cc1ccc2ccccc2c1)NC(C)=O)C(=O)N1CCC[C@H]1C(=O)N[C@H](C)C(N)=O)N(C)C [compound 24987] (Ac-[d2Nal][dPhe(4-Cl)][d3Pal]SK(Nicotinoyl)[dK](Nicotinoyl)L[X9]P[dA]-NH2) | 150.9 ± 14.0 |
| CC(=O)N[C@H](Cc1ccc2ccccc2c1)C(=O)N[C@H](Cc1ccc(Cl)cc1)C(=O)N[C@H](Cc1cccnc1)C(=O)N[C@@H](CO)C(=O)N[C@@H](CCCCNC(=O)c1cccnc1)C(=O)N[C@H](CCCCNC(=O)c1cccnc1)C(=O)N[C@@H](CC(C)C)C(=O)N[C@@H](CCCCNC1CCCC1)C(=O)N1CCC[C@H]1C(=O)N[C@H](C)C(N)=O [compound 25078] (Ac-[d2Nal][dPhe(4-Cl)][d3Pal]SK(Nicotinoyl)[dK](Nicotinoyl)L[X5]P[dA]-NH2) | 147.0 |
| CC(=O)N[C@H](Cc1ccc2ccccc2c1)C(=O)N[C@H](Cc1ccc(Cl)cc1)C(=O)N[C@H](Cc1cccnc1)C(=O)N[C@@H](CO)C(=O)N[C@@H](CCCCNC(=O)c1cccnc1)C(=O)N[C@H](CCCCNC(=O)c1cccnc1)C(=O)N[C@@H](CC(C)C)C(=O)N[C@@H](CCCNc1nc(C)cc(C)n1)C(=O)N1CCC[C@H]1C(=O)N[C@H](C)C(N)=O [compound 25143] (Ac-[d2Nal][dPhe(4-Cl)][d3Pal]SK(Nicotinoyl)[dK](Nicotinoyl)L[Orn](Pyrimidin2yl(4,6-Me2))P[dA]-NH2) | 113.6 |
| CC[C@H](C)[C@H](NC(=O)[C@H](CO)NC(=O)[C@@H](Cc1cccnc1)NC(=O)[C@@H](Cc1ccc(Cl)cc1)NC(=O)[C@@H](Cc1ccc2ccccc2c1)NC(C)=O)C(=O)N[C@H](CCCCNC(=O)c1cccnc1)C(=O)N[C@@H](CC(C)C)C(=O)N[C@@H](CCCCNC(C)C)C(=O)N1CCC[C@H]1C(=O)N[C@H](C)C(N)=O [compound 25144] (Ac-[d2Nal][dPhe(4-Cl)][d3Pal]SI[dK](Nicotinoyl)L[Lys(iPr)]P[dA]-NH2) | 147.7 |
| CC[C@H](C)[C@H](NC(=O)[C@H](CO)NC(=O)[C@@H](Cc1cccnc1)NC(=O)[C@@H](Cc1ccc(Cl)cc1)NC(=O)[C@@H](Cc1ccc2ccccc2c1)NC(C)=O)C(=O)N[C@H](CCCCNC(=O)c1cccnc1)C(=O)N[C@@H](CC(C)C)C(=O)N[C@@H](CCCNC(C)C)C(=O)N1CCC[C@H]1C(=O)N[C@H](C)C(N)=O [compound 25145] (Ac-[d2Nal][dPhe(4-Cl)][d3Pal]SI[dK](Nicotinoyl)L[Orn(iPr)]P[dA]-NH2) | 116.5 |
| CC(=O)N[C@H](Cc1ccc2ccccc2c1)C(=O)N[C@H](Cc1ccc(Cl)cc1)C(=O)N[C@H](Cc1cccnc1)C(=O)N[C@@H](CO)C(=O)N[C@@H](CCCCNC(=O)c1ccncc1)C(=O)N[C@H](CCCCNC(=O)c1ccncc1)C(=O)N[C@@H](CC(C)C)C(=O)N[C@@H](CCCCNC(C)C)C(=O)N1CCC[C@H]1C(=O)N[C@H](C)C(N)=O [compound 25146] (Ac-[d2Nal][dPhe(4-Cl)][d3Pal]SK(Isonicotinoyl)[dK](Isonicotinoyl)L[Lys(iPr)]P[dA]-NH2) | 140.3 |
| CC(=O)N[C@H](Cc1ccc2ccccc2c1)C(=O)N[C@H](Cc1ccc(Cl)cc1)C(=O)N[C@H](Cc1cccnc1)C(=O)N[C@@H](CO)C(=O)N[C@@H](CCCCNC(=O)c1ccccn1)C(=O)N[C@H](CCCCNC(=O)c1ccccn1)C(=O)N[C@@H](CC(C)C)C(=O)N[C@@H](CCCCNC(C)C)C(=O)N1CCC[C@H]1C(=O)N[C@H](C)C(N)=O [compound 25147] (Ac-[d2Nal][dPhe(4-Cl)][d3Pal]SK(Picolinoyl)[dK](Picolinoyl)L[Lys(iPr)]P[dA]-NH2) | 123.0 |
| CC(=O)N[C@H](Cc1ccc2ccccc2c1)C(=O)N[C@H](Cc1ccc(Cl)cc1)C(=O)N[C@H](Cc1cccnc1)C(=O)N[C@@H](CO)C(=O)N[C@@H](CCCCNC(=O)c1cccnc1)C(=O)N[C@H](CCCCNC(=O)c1ccccc1)C(=O)N[C@@H](CC(C)C)C(=O)N[C@@H](CCCCNC(C)C)C(=O)N1CCC[C@H]1C(=O)N[C@H](C)C(N)=O [compound 25332] (Ac-[d2Nal][dPhe(4-Cl)][d3Pal]SK(Nicotinoyl)[dK](Bz)L[Lys(iPr)]P[dA]-NH2) | 119.6 |
| CC(=O)N[C@H](Cc1ccc2ccccc2c1)C(=O)N[C@H](Cc1ccc(Cl)cc1)C(=O)N[C@H](Cc1cccnc1)C(=O)N[C@@H](CO)C(=O)N[C@@H](CCCNC(=O)c1cccnc1)C(=O)N[C@H](CCCCNC(=O)c1cccnc1)C(=O)N[C@@H](CC(C)C)C(=O)N[C@@H](CCCNC(C)C)C(=O)N1CCC[C@H]1C(=O)N[C@H](C)C(N)=O [compound 25333] (Ac-[d2Nal][dPhe(4-Cl)][d3Pal]S[Orn](Nicotinoyl)[dK](Nicotinoyl)L[Orn(iPr)]P[dA]-NH2) | 113.6 |
| CC(=O)N[C@H](Cc1ccc2ccccc2c1)C(=O)N[C@H](Cc1ccc(Cl)cc1)C(=O)N[C@H](Cc1cccnc1)C(=O)N[C@@H](CO)C(=O)N[C@@H](CCCCNC(=O)c1cccnc1)C(=O)N[C@H](CCCNc1nc(C)cc(C)n1)C(=O)N[C@@H](CC(C)C)C(=O)N[C@@H](CCCCNC(C)C)C(=O)N1CCC[C@H]1C(=O)N[C@H](C)C(N)=O [compound 25334] (Ac-[d2Nal][dPhe(4-Cl)][d3Pal]SK(Nicotinoyl)[dOrn](Pyrimidin2yl(4,6-Me2))L[Lys(iPr)]P[dA]-NH2) | 165.2 |
| CC(=O)N[C@H](Cc1ccc2ccccc2c1)C(=O)N[C@H](Cc1ccc(Cl)cc1)C(=O)N[C@H](Cc1cccnc1)C(=O)N[C@@H](CO)C(=O)N[C@@H](CCCNC(=N)N)C(=O)N[C@H](CCCCNC(=O)c1cccnc1)C(=O)N[C@@H](CC(C)C)C(=O)N[C@@H](CCCCNC(C)C)C(=O)N1CCC[C@H]1C(=O)N[C@H](C)C(N)=O [compound 25335] (Ac-[d2Nal][dPhe(4-Cl)][d3Pal]SR[dK](Nicotinoyl)L[Lys(iPr)]P[dA]-NH2) | 196.9 |
| CC(=O)N[C@H](Cc1ccc(Cl)cc1)C(=O)N[C@H](Cc1ccc(Cl)cc1)C(=O)N[C@H](Cc1cccnc1)C(=O)N[C@@H](CO)C(=O)N[C@@H](Cc1ccc(O)cc1)C(=O)N[C@H](CCCCNC(=O)c1cccnc1)C(=O)N[C@@H](CC(C)C)C(=O)N[C@@H](CCCCNC(C)C)C(=O)N1CCC[C@H]1C(=O)N[C@H](C)C(N)=O [compound 25337] (Ac-[dPhe(4-Cl)][dPhe(4-Cl)][d3Pal]SY[dK](Nicotinoyl)L[Lys(iPr)]P[dA]-NH2) | 139.9 |
| CC(=O)N[C@H](Cc1ccc(Cl)c(Cl)c1)C(=O)N[C@H](Cc1ccc(Cl)cc1)C(=O)N[C@H](Cc1cccnc1)C(=O)N[C@@H](CO)C(=O)N[C@@H](Cc1ccc(O)cc1)C(=O)N[C@H](CCCCNC(=O)c1cccnc1)C(=O)N[C@@H](CC(C)C)C(=O)N[C@@H](CCCCNC(C)C)C(=O)N1CCC[C@H]1C(=O)N[C@H](C)C(N)=O [compound 25338] (Ac-[dPhe(3,4-Cl2)][dPhe(4-Cl)][d3Pal]SY[dK](Nicotinoyl)L[Lys(iPr)]P[dA]-NH2) | 103.9 |
| CC(=O)N[C@H](Cc1ccc2ccccc2c1)C(=O)N[C@H](Cc1ccc(Cl)cc1)C(=O)N[C@H](Cc1cccnc1)C(=O)N[C@@H](CO)C(=O)N[C@@H](Cc1cccnc1)C(=O)N[C@H](CCCCNC(=O)c1cccnc1)C(=O)N[C@@H](CC(C)C)C(=O)N[C@@H](CCCCNC(C)C)C(=O)N1CCC[C@H]1C(=O)N[C@H](C)C(N)=O [compound 25383] (Ac-[d2Nal][dPhe(4-Cl)][d3Pal]S[3Pal][dK](Nicotinoyl)L[Lys(iPr)]P[dA]-NH2) | 132.8 |
| CC(=O)N[C@H](Cc1ccc2ccccc2c1)C(=O)N[C@H](Cc1ccc(Cl)cc1)C(=O)N[C@H](Cc1cccnc1)C(=O)N[C@@H](CO)C(=O)N[C@@H](Cc1cccnc1)C(=O)N[C@H](CCCCNC(=O)c1cccnc1)C(=O)N[C@@H](CC(C)C)C(=O)N[C@@H](CCCNC(C)C)C(=O)N1CCC[C@H]1C(=O)N[C@H](C)C(N)=O [compound 25384] (Ac-[d2Nal][dPhe(4-Cl)][d3Pal]S[3Pal][dK](Nicotinoyl)L[Orn(iPr)]P[dA]-NH2) | 139.9 |
| CC(=O)N[C@H](Cc1ccc2ccccc2c1)C(=O)N[C@H](Cc1ccc(Cl)cc1)C(=O)N[C@H](Cc1cccnc1)C(=O)N[C@@H](CO)C(=O)N[C@@H](CCCNC(=N)N)C(=O)N[C@H](CCCCNC(=O)c1ccccc1)C(=O)N[C@@H](CC(C)C)C(=O)N[C@@H](CCCCNC(C)C)C(=O)N1CCC[C@H]1C(=O)N[C@H](C)C(N)=O [compound 25385] (Ac-[d2Nal][dPhe(4-Cl)][d3Pal]SR[dK](Bz)L[Lys(iPr)]P[dA]-NH2) | 169.0 |
| CC(=O)N[C@H](Cc1ccc2ccccc2c1)C(=O)N[C@H](Cc1ccc(Cl)cc1)C(=O)N[C@H](Cc1cccnc1)C(=O)N[C@@H](CO)C(=O)N[C@@H](CCCCNC(=O)c1ccc(C)nc1)C(=O)N[C@H](CCCCNC(=O)c1ccc(C)nc1)C(=O)N[C@@H](CC(C)C)C(=O)N[C@@H](CCCCNC(C)C)C(=O)N1CCC[C@H]1C(=O)N[C@H](C)C(N)=O [compound 25386] (Ac-[d2Nal][dPhe(4-Cl)][d3Pal]SK(Nicotinoyl(6-Me))[dK](Nicotinoyl(6-Me))L[Lys(iPr)]P[dA]-NH2) | 126.1 |
